Consider 25 compounds from US7022699B2, “Cyclohexenyl phenyl diazepines vasopressin and oxytocin receptor modulators” (Wyeth, priority 2001, dated 2006).

As a reminder, the inhibition is the drop in the measured response relative to a control, in per cent. What is called IC50 is the concentration at which inhibition is half-maximal.

The target of the first experiment is T1, human vasopressin V1a receptor subtype (Homo sapiens, UniProt P37288).
T1 construct: host or cells: CHO cells, stably transfected (pZeoSV vector for the Thibonnier cells); membranes
T1 sequence (P37288 whole entry): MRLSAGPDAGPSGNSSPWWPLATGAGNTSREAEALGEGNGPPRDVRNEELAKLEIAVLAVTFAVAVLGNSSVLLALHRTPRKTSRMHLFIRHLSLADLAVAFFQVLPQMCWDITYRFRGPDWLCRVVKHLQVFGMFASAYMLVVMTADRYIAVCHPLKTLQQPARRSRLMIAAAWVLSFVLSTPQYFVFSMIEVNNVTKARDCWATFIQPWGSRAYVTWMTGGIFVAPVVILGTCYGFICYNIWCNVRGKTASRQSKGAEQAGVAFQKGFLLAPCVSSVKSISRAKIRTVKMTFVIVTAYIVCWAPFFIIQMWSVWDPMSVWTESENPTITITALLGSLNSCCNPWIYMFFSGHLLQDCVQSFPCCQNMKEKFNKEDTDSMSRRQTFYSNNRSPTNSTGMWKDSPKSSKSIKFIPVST
The experiment can be described thus: Vasopressin binding in CHO cell membranes expressing human vasopressin V1a subtype receptors ([3H]Manning ligand). Conditions: 100 nM, values without parentheses. An excerpt:
Vasopressin Binding in Chinese Hamster Ovary Cell Membranes Expressing Human Vasopressin V1a Subtype Receptors
Chinese hamster ovary cells (CHO cells) stably transfected with the human vasopressin V1a subtype receptors were either obtained from Biosignal Inc., 1744 rue Williams, Montreal, Quebec, Canada or obtained from M. Thibonnier, Case Western Reserve University School of Medicine, Cleveland, Ohio. A. Passaging and Amplification of Cells: CHO cells transfected with the human vasopressin V1a subtype receptors obtained from M. Thibonnier (pZeoSV vector) are allowed to grow to confluency (approx. >90%) in T-150 flasks under sterile conditions, in a cell culture medium of F-12 Nutrient Mixture (HAM) with L-glutamine (Gibco Cat. #11765-054) containing 15 mM HEPES (Gibco Cat. #15630-080), 1% antibiotic/antimycotic (add 5 mL 100×, Gibco Cat. #15240-062 per 500 mL F-12), 250 μg/mL Zeocin (add 1.25 mL of 100 mg/mL Invitrogen R-250-01 per 500 mL F-12) and 10% Fetal Bovine Serum (Qualified, heat inactivated, Gibco Cat. #16140-063). The medium is removed by aspiration and the cells are washed with 10 mL of Hank's Balanced Salt solution (Gibco Cat. #14175-095). The salt solution is removed by aspiration and the cells are trypsinized with 5 mL of trypsin-EDTA (0.05% trypsin, 0.53 mM EDTA-4Na, Gibco Cat. #25300-070) for 1 min. The trypsin is removed by aspiration and the cells dislodged by tapping. Cell Culture medium (eg, 30 mL for 1:30 split) is immediately added and mixed well to inactivate trypsin. 1 mL of detached cells is added to new culture flasks containing fresh cell culture medium (eg, into 25 mL per T-150 flask), and mixed gently. The cells are incubated at 37° C. in 5% CO2. The medium is changed at 3 to 4 days interval (or as appropriate). The cells grow to confluency (approx. >75%–95%) within 7–8 days. All steps are done under sterile conditions. B. Membrane Preparation: The cells are washed twice gently with Hank's Balanced Salt solution (e.g.,. use 10 mL per T-150 flask). The excess is removed and the cells are bathed for 15–30 min. in an enzyme-free Cell Dissociation Buffer (e.g. use 8 mL Hank's Based, Gibco Cat. #13150-016 per T-150 flask) until the cells are loosened. The contents are transferred to centrifuge tubes (50 mL size) kept in ice bath. All subsequent steps are done at 4° C. The tubes are centrifuged at 300×g for 15 min (1380 rpm on SORVAL, Model RT6000D, using rotor for 50 mL tubes). The supernatant is discarded and the cells suspended in homogeneizing buffer (10 mM Tris-HCl containing 0.25 M sucrose and 1 mM EDTA, pH 7.4) ensuring that the volume of the buffer is about ten times the volume of the cell pellet. The cells are pooled into a centrifuge tube (50 mL) and homogenized with Polytron at setting 6 for 10 sec. The homogenate is transferred into a Potter-Elvjehm homogenizer and homogenized with 3 strokes. The homogenate is centrifuged at 1500×g for 10 min at 4° C. (3100 rpm using SORVAL, model RT6000D, using rotor for 50 mL tubes). The pellet is discarded. The supernatant is centrifuged at 100,000×g for 60 min. at 4° C. (Beckman L8-80M ultracentrifuge; spin at 37,500 rpm with rotor type 70 Ti for 50 mL tubes; 38,000 rpm with type 80Ti for 15 mL tubes; or 35,800 rpm with rotor type 45Ti). The supernantant is discarded and the pellet suspended in 3 to 4 mL of Tris buffer (50 mM TRIS-HCl, pH 7.4). The protein content is estimated by the Bradford or Lowry method. The volume of the membrane suspension is adjusted with the membrane buffer (50 mM Tris-HCl containing 0.1% BSA and 0.1 mM PMSF) to give 3.0 mg/mL (or as appropriate) of protein. The membranes are aliquoted and stored at −70° C. C. […]
Regarding `CC1=C(c2ccc(C(=O)N3Cc4cccn4Cc4ccccc43)cc2C)CCCC1O` (racemic) [Example 5, (10,11-Dihydro-5H-pyrrolo[2,1-c][1,4]benzodiazepin-10-yl)-[4-(3-hydroxy-2-methyl-cyclohex-1-en-1-yl)-3-methyl-phenyl]-methanone], the inhibition at 0.1 µM came out at 0%.
As for `CC1=C(c2ccc(C(=O)N3Cc4cccn4Cc4ccccc43)cc2C)CCC[C@H]1O` (single isomer, unassigned) [Example 41], the inhibition at 0.1 µM is 36%.
The same measure, in the same setting: the value for `CC1=C(c2ccc(C(=O)N3Cc4cccn4Cc4ccccc43)cc2C)CCC[C@@H]1O` (single isomer, unassigned) [Example 43] was 93%; that for `Cc1cc(C(=O)N2Cc3cccn3Cc3ccccc32)ccc1C1=CCCCC1` [Example 2, (10,11-Dihydro-5H-pyrrolo[2,1-c][1,4]benzodiazepin-10-yl)-(4-cyclohex-1-en-1-yl-3-methyl-phenyl)-methanone] was 74%; that for `CC1=C(c2ccc(C(=O)N3Cc4cccn4Cc4ccccc43)cc2C)CCCC1=O` [Example 4, 3-[2-Methyl-4-(5H-pyrrolo[2,1-c][1,4]benzodiazepin-10(11H)-yl-carbonyl)phenyl]-2-methyl-cyclohex-2-en-1-one] was 7%.
Consider `CC1=C(c2ccc(C(=O)N3Cc4cccn4Cc4ccccc43)cc2C)CCC[C@H]1O` [Example 6, (10,11-Dihydro-5H-pyrrolo[2,1-c][1,4]benzodiazepin-10-yl)-[4-((3R)-3-hydroxy-2-methyl-cyclohex-1-en-1-yl)-3-methyl-phenyl]-methanone], for which the inhibition at 0.1 µM was determined as 45%.
For the compound `COc1cc(C2=CCCc3ccccc32)c(Cl)cc1C(=O)N1Cc2cccn2Cc2ccccc21` [Example 8, 10-[5-Chloro-4-(3,4-dihydro-naphthalen-1-yl)-2-methoxybenzoyl]-10,11-dihydro-5H-pyrrolo[2,1-c][1,4]benzodiazepine], the inhibition at 0.1 µM is -9%.
On to `COc1cc(C2=C(C)C(=O)CCC2)c(Cl)cc1C(=O)N1Cc2cccn2Cc2ccccc21` [Example 9, 3-[2-Chloro-5-methoxy-4-(5H-pyrrolo[2,1-c][1,4]benzodiazepin-10(11H)-yl-carbonyl)phenyl]-2-methyl-cyclohex-2-en-1-one], for which the inhibition at 0.1 µM was 17%.
For `O=C(c1ccc(C2=CCCCC2)cc1Cl)N1Cc2cccn2Cc2ccccc21` [Example 10, (10,11-dihydro-5H-pyrrolo[2,1-c][1,4]benzodiazepin-10-yl)-[2-chloro-4-(cyclohex-1-en1-yl)-phenyl]-methanone], the inhibition at 0.1 µM was found to be 94%.
Turning to `O=C(c1ccc(C2=CCCc3ccccc32)cc1Cl)N1Cc2cccn2Cc2ccccc21` [Example 11, (10,11-Dihydro-5H-pyrrolo[2,1-c][1,4]benzodiazepin-10-yl)-[2-chloro-4-(3,4-dihydro-naphthalen-1-yl)-phenyl]-methanone], the inhibition at 0.1 µM is 6%.
As to `CC1(C)CCCC=C1c1ccc(C(=O)N2Cc3cccn3Cc3ccccc32)c(Cl)c1` [Example 12, (10,11-Dihydro-5H-pyrrolo[2,1-c][1,4]benzodiazepin-10-yl)-[2-chloro-4-(6,6-dimethyl-cyclohex-1-en-1-yl)-phenyl]-methanone], the inhibition at 0.1 µM is 54%.
Turning to `CC1=C(c2ccc(C(=O)N3Cc4cccn4Cc4ccccc43)c(Cl)c2)CCCC1=O` [Example 13, (10,11-Dihydro-5H-pyrrolo[2,1-c][1,4]benzodiazepin-10-yl)-[2-chloro-4-(2-methyl-3-oxo-cyclohex-1-en-1-yl)-phenyl]-methanone], the inhibition at 0.1 µM was 95%.
With `CC1=C(c2ccc(C(=O)N3Cc4cccn4Cc4ccccc43)c(Cl)c2)CCCC1O` (stereo not shown) [Example 14, (10,11-Dihydro-5H-pyrrolo[2,1-c][1,4]benzodiazepin-10-yl)-[2-chloro-4-(3-hydroxy-2-methyl-cyclohex-1-en-1-yl)-phenyl]-methanone], the inhibition at 0.1 µM came out at 10%.
In the case of `CC1(C)CCCC=C1c1ccc(C(=O)N2Cc3cccn3Cc3ccccc32)cc1` [Example 17, (10,11-Dihydro-5H-pyrrolo[2,1-c][1,4]benzodiazepin-10-yl)-[4-(6,6-dimethyl-cyclohex-1-en-1-yl)-phenyl]-methanone], the inhibition at 0.1 µM is 51%.
On to `O=C(c1ccc(C2=CCCc3ccccc32)cc1)N1Cc2cccn2Cc2ccccc21` [Example 18, (10,11-Dihydro-5H-pyrrolo[2,1-c][1,4]benzodiazepin-10-yl)-[4-(3,4-dihydro-naphthalen-1-yl)-phenyl]-methanone], for which the inhibition at 0.1 µM came out at 51%.
As to `CC1=C(c2ccc(C(=O)N3Cc4cccn4Cc4ccccc43)cc2)C(C)CCC1` (stereo not shown) [Example 19, (10,11-Dihydro-5H-pyrrolo[2,1-c][1,4]benzodiazepin-10-yl)-[4-(2,6-dimethyl-cyclohex-1-en-1-yl)-phenyl]-methanone], the inhibition at 0.1 µM came out at 23%.
Take `CC(C)(C)C1CCCC=C1c1ccc(C(=O)N2Cc3cccn3Cc3ccccc32)cc1` (stereo not shown) [Example 20, (10,11-5H-Dihydro-pyrrolo[2,1-c][1,4]benzodiazepin-10-yl)-[4-(6-tert-butyl-cyclohex-1-en-1-yl)-phenyl]-methanone]: the “V1a % inhibition @ 100 nM” value was found to be 4%.
For the compound `O=C(c1ccc(C2=CCC3CCC2C3)cc1)N1Cc2cccn2Cc2ccccc21` (stereo not shown) [Example 21], the “V1a % inhibition @ 100 nM” value worked out at 37%.
Consider `CC1(C)C2CC=C(c3ccc(C(=O)N4Cc5cccn5Cc5ccccc54)cc3)C1C2` (stereo not shown) [Example 22, (10,11-Dihydro-5H-pyrrolo[2,1-c][1,4]benzodiazepin-10-yl)-[4-(6,6-dimethyl-bicyclo[3.1.1]hept-2-en-2-yl)-phenyl]-methanone], for which the inhibition at 0.1 µM turned out to be 13%.
On the same count and under the same terms, in the case of `CC1(C)C=C(c2ccc(C(=O)N3Cc4cccn4Cc4ccccc43)cc2)CC(C)(C)C1` [Example 23, (10,11-Dihydro-5H-pyrrolo[2,1-c][1,4]benzodiazepin-10-yl)-[4-(3,3,5,5-tetramethyl-cyclohex-1-en-1-yl)-phenyl]-methanone] it was -10%.

The same experiment, now with this note: values in parentheses.
As to `COc1cc(C2=CCCCC2)c(Cl)cc1C(=O)N1Cc2cccn2Cc2ccccc21` [Example 1, 10-(5-Chloro-4-cyclohex-1-en-1-yl-2-methoxybenzoyl)-10,11-dihydro-5H-pyrrolo[2,1-c][1,4]benzodiazepine], the IC50 was determined as 0.232 µM.
For `Cc1cc(C(=O)N2Cc3cccn3Cc3ccccc32)ccc1C1=CCCc2ccccc21` [Example 3, (10,11-Dihydro-5H-pyrrolo[2,1-c][1,4]benzodiazepin-10-yl)-[4-(3,4-dihydro-naphthalen-1-yl)-3-methyl-phenyl]-methanone], the IC50 is 0.432 µM.
As for `CC1=C(c2ccc(C(=O)N3Cc4cccn4Cc4ccccc43)cc2)CCCC1` [Example 7, (10,11-Dihydro-5H-pyrrolo[2,1-c][1,4]benzodiazepin-10-yl)-[4-(2-methyl-cyclohex-1-en-1-yl)-phenyl]-methanone], the IC50 was determined as 0.0457 µM.
Same read-out and setting: in the case of `O=C(c1ccc(C2=CCCCC2)cc1)N1Cc2cccn2Cc2ccccc21` [Example 15, (10,11-Dihydro-5H-pyrrolo[2,1-c][1,4]benzodiazepin-10-yl)-(4-cyclohex-1-en-1-yl-phenyl)-methanone] it was 0.0353 µM; in that of `CC1CCCC=C1c1ccc(C(=O)N2Cc3cccn3Cc3ccccc32)cc1` (stereo not shown) [Example 16, (10,11-Dihydro-5H-pyrrolo[2,1-c][1,4]benzodiazepin-10-yl)-[4-(6-methyl-cyclohex-1-en-1-yl)-phenyl]-methanone], 0.0778 µM.
